The supplement of paper PMC10307832

Key:
Assay in all cases: relative viability (nuclei count vs DMSO), 5 days (fraction); higher = more cells survive
Shikonin + OSI-027 = compound: CC(C)=CC[C@@H](O)C1=CC(=O)c2c(O)ccc(O)c2C1=O [Shikonin] + COc1cccc2cc(-c3nc([C@H]4CC[C@H](C(=O)O)CC4)n4ncnc(N)c34)[nH]c12 [OSI-027] (partner 0.5 µM)
Procedure, shortened: (§1)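 Lung cancer cell lines in 1536-well plates got either a single drug or a fixed anchor-drug dose together with five library-drug doses (not always all listed) in √10 steps, by pin tool, on the day after seeding. Nuclei were counted after 5 days, and relative viability is the treated-to-vehicle ratio of nuclei counts. Values are medians of duplicate plates.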

Shikonin + Linsitinib = compound: CC(C)=CC[C@@H](O)C1=CC(=O)c2c(O)ccc(O)c2C1=O [Shikonin] + C[C@]1(O)C[C@@H](c2nc(-c3ccc4ccc(-c5ccccc5)nc4c3)c3c(N)nccn32)C1 [Linsitinib] (partner 1 µM)
Procedure, shortened: as §1

Shikonin + Pictilisib = compound: CC(C)=CC[C@@H](O)C1=CC(=O)c2c(O)ccc(O)c2C1=O [Shikonin] + CS(=O)(=O)N1CCN(Cc2cc3nc(-c4cccc5[nH]ncc45)nc(N4CCOCC4)c3s2)CC1 [Pictilisib] (partner 1 µM)
Procedure, shortened: as §1

Shikonin + Crizotinib = compound: CC(C)=CC[C@@H](O)C1=CC(=O)c2c(O)ccc(O)c2C1=O [Shikonin] + C[C@@H](Oc1cc(-c2cnn(C3CCNCC3)c2)cnc1N)c1c(Cl)ccc(F)c1Cl [Crizotinib] (partner 1 µM)
Procedure, shortened: as §1

Shikonin + Tozasertib = compound: CC(C)=CC[C@@H](O)C1=CC(=O)c2c(O)ccc(O)c2C1=O [Shikonin] + Cc1cc(Nc2cc(N3CCN(C)CC3)nc(Sc3ccc(NC(=O)C4CC4)cc3)n2)n[nH]1 [Tozasertib] (partner 0.1 µM)
Procedure, shortened: as §1

Cell Line | relative viability (Shikonin + OSI-027; first compound 0.01 µM) | relative viability (Shikonin + OSI-027; first compound 0.1 µM) | relative viability (Shikonin + OSI-027; first compound 0.3162 µM) | relative viability (Shikonin + OSI-027; first compound 1 µM) | relative viability (Shikonin + Linsitinib; first compound 0.01 µM) | relative viability (Shikonin + Linsitinib; first compound 0.1 µM) | relative viability (Shikonin + Linsitinib; first compound 0.3162 µM) | relative viability (Shikonin + Linsitinib; first compound 1 µM) | relative viability (Shikonin + Pictilisib; first compound 0.01 µM) | relative viability (Shikonin + Pictilisib; first compound 0.1 µM) | relative viability (Shikonin + Pictilisib; first compound 0.3162 µM) | relative viability (Shikonin + Pictilisib; first compound 1 µM) | relative viability (Shikonin + Crizotinib; first compound 0.01 µM) | relative viability (Shikonin + Crizotinib; first compound 0.1 µM) | relative viability (Shikonin + Crizotinib; first compound 0.3162 µM) | relative viability (Shikonin + Crizotinib; first compound 1 µM) | relative viability (Shikonin + Tozasertib; first compound 0.01 µM) | relative viability (Shikonin + Tozasertib; first compound 0.1 µM) | relative viability (Shikonin + Tozasertib; first compound 0.3162 µM) | relative viability (Shikonin + Tozasertib; first compound 1 µM)
HCC-44 | 0.512 | 0.513 | 0.466 | 0.747 | 0.798 | 0.636 | 0.685 | 0.694 | 0.663 | 0.835 | 0.564 | 0.728 | 0.933 | 0.86 | 0.891 | 0.825 | 0.901 | 0.732 | 1.19 | 0.937
HCC-78 | 0.338 | 0.377 | 0.353 | 0.401 | 0.499 | 0.496 | 0.658 | 0.56 | 0.185 | 0.234 | 0.188 | 0.249 | 0.325 | 0.388 | 0.357 | 0.377 | 0.465 | 0.433 | 0.402 | 0.372
HCC-366 | 1.07 | 1.27 | 1.14 | 0.859 | 0.592 | 0.852 | 0.985 | 0.673 | 0.164 | 0.137 | 0.165 | 0.127 | 0.745 | 0.373 | 0.517 | 0.561 | 0.118 | 0.103 | 0.166 | 0.114
HCC-827 | 0.821 | 0.86 | 0.9 | 0.761 | 0.909 | 1.09 | 0.999 | 0.906 | 1.12 | 0.786 | 1.03 | 0.871 | 0.939 | 0.974 | 0.933 | 0.935 | 0.452 | 0.456 | 0.432 | 0.453
HOP-62 | 0.967 | 1.06 | 1.03 | 0.826 | 0.994 | 0.806 | 0.987 | 0.807 | 0.714 | 1.09 | 0.933 | 0.62 | 0.61 | 0.95 | 0.32 | 1.02 | 0.369 | 0.407 | 0.369 | 0.38
IA-LM |  |  |  |  | 0.738 | 0.473 | 0.434 | 0.573 | 0.363 | 0.364 | 0.337 | 0.305 | 1.06 |  | 1.11 | 0.667 |  |  |  | 
LC-2-ad | 0.815 | 0.913 | 0.816 | 0.876 | 0.769 | 0.884 | 0.833 | 0.812 | 0.336 | 0.506 | 0.469 | 0.408 | 0.404 | 0.45 | 0.423 | 0.364 | 0.486 | 0.392 | 0.485 | 0.435
LCLC-97TM1 | 0.504 | 0.591 | 0.675 | 0.579 | 0.175 | 0.176 | 0.173 | 0.162 | 0.172 | 0.143 | 0.266 | 0.169 | 0.573 | 0.46 | 0.3 | 0.247 | 0.254 | 0.21 | 0.222 | 0.17
NCI-H522 | 0.566 | 0.729 | 0.72 | 0.809 |  |  |  |  |  |  |  |  |  |  |  |  | 0.599 | 0.555 | 0.615 | 0.572
NCI-H1299 |  |  |  |  | 1 | 1.03 | 0.82 | 0.659 | 0.76 | 1.08 | 0.711 | 0.429 | 0.958 | 1.09 | 0.965 | 0.922 |  |  |  | 
NCI-H1395 | 0.582 | 0.681 | 0.661 | 0.732 | 1.08 | 1.4 | 0.878 | 1.05 | 0.603 | 0.695 | 0.584 | 0.652 |  |  |  |  | 0.794 | 0.842 | 0.806 | 0.763
NCI-H1563 | 0.678 | 0.714 | 0.798 | 0.769 | 1.27 | 1.29 | 1.23 | 0.892 | 0.629 | 0.719 | 0.675 | 0.566 | 0.891 | 0.845 | 0.751 | 0.622 |  |  |  | 
NCI-H1623 | 0.397 | 0.428 | 0.414 | 0.393 |  |  |  |  |  |  |  |  |  |  |  |  | 0.423 | 0.472 | 0.441 | 0.449
NCI-H1648 | 0.253 | 0.285 | 0.285 | 0.26 |  |  |  |  |  |  |  |  |  |  |  |  | 0.537 | 0.404 | 0.471 | 0.408
NCI-H1650 | 0.596 | 0.459 | 0.392 | 0.487 |  |  |  |  | 0.682 | 0.684 | 0.481 | 0.571 | 1.06 | 0.993 | 1.06 | 0.691 | 0.419 | 0.367 | 0.365 | 0.3
NCI-H1703 |  |  |  |  | 0.797 | 1.3 | 0.555 | 0.417 | 0.26 | 0.238 | 0.206 | 0.205 | 0.873 | 0.671 | 0.633 | 0.512 |  |  |  | 
NCI-H1792 | 0.7 | 0.63 | 0.853 | 0.805 | 0.511 | 0.388 | 0.658 | 0.661 | 0.306 | 0.206 | 0.293 | 0.308 | 1.1 | 0.796 | 1.03 | 1.14 |  |  |  | 
NCI-H1793 | 0.223 | 0.271 | 0.291 | 0.301 | 0.894 | 0.778 | 0.891 | 1.07 | 0.359 | 0.251 | 0.241 | 0.304 |  |  |  |  | 0.353 | 0.322 | 0.332 | 0.498
NCI-H2170 | 0.729 | 0.695 | 0.782 | 0.777 |  |  |  |  | 0.291 | 0.34 | 0.338 | 0.326 | 1.5 | 1.07 | 1.29 | 1.25 | 0.68 | 0.494 | 0.695 | 0.739
NCI-H2342 | 0.597 | 0.589 | 0.646 | 0.671 |  |  |  |  |  |  |  |  |  |  |  |  | 0.408 | 0.494 | 0.502 | 0.507
SW 900 | 0.575 | 0.616 | 0.508 | 0.569 |  |  |  |  |  |  |  |  |  |  |  |  | 0.546 | 0.458 | 0.527 | 0.536
